For orientation: Kd means a measure of binding affinity in units of concentration. Higher therefore signals lower affinity.

The structures appear in SMILES notation.

In paper PMC12536539, “Detumescence Analgesic Plaster mitigates knee osteoarthritis via active ingredients targeting mitochondrial complex 1/AMPK/MYL3-regulated cartilage homeostasis” (Chinese Medicine, 2025) one finds Kd data, which are given here for one molecule.

The target in this experiment is T1, NDUFA6.
T1 construct: SPR protein; species is a guess, rat possible
The experiment is described as follows: SPR, Biacore 8K, […] Langmuir kinetic fit. It is filed as binding.

`O=C(/C=C/c1ccc(O)c(O)c1)O[C@@H]1C[C@](OC(=O)/C=C/c2ccc(O)c(O)c2)(C(=O)O)C[C@@H](O)[C@H]1O` [1,5-dicaffeoylquinic acid] yielded a Kd of 735 nM.
